Each compound was assayed against T1, AM2 receptor (CALCRL+RAMP3) (Homo sapiens, UniProt O60896+Q16602) (assay: AM2 receptor inhibition, LANCE TR-FRET cAMP agonist-antagonist competition assay). Settings: inhibition of AM induced cAMP activation; 1321N1 cells transfected with CALCRL+RAMP3; read-out: AM2 pIC50 (converted).
T1 construct: host or cells: 1321N1
T1 sequence (Q16602 23-461): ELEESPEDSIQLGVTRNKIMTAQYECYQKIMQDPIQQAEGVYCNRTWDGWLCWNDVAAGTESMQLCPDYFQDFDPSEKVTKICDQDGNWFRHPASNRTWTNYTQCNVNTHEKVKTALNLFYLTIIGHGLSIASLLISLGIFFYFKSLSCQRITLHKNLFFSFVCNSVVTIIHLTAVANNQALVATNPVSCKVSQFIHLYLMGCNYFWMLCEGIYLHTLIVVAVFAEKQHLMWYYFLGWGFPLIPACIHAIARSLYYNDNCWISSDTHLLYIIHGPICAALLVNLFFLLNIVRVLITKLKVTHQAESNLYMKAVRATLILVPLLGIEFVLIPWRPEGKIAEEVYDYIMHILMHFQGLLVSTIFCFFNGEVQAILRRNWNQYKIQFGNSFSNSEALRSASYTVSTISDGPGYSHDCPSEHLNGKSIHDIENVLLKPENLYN
T1 sequence (O60896 24-148): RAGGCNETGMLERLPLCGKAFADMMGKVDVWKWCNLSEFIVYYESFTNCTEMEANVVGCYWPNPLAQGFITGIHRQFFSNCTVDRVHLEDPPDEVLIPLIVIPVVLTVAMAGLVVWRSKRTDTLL
Format: cell-based
Description: Compounds were assessed for their ability to inhibit ligand-induced elevations of cAMP, using the Perkin Elmer LANCE cAMP assay using commercially-available cells expressing a specific receptor of interest using the following general procedure:
Compounds were prepared in dimethyl sulfoxide (DMSO—99.9% pure) (Sigma Aldrich, Cat #: D4540) added to powder stocks to produce a 20 mM solution (100% DMSO) that was sonicated at 37° C. for 10 minutes to fully dissolve the compounds. The 20 mM stocks were diluted further in DMSO to produce a 2 mM solution that was sonicated at 37° C. for 10 minutes. 2 mM stocks were dissolved in assay/stimulation buffer to produce a 400 μM solution that was sonicated at 37° C. for 10 minutes for all cAMP assays. All stocks were stored at −20° C. Then serial dilution (Dilution factor 10) was performed to achieve the desire experimental concentrations.
Competition assays were performed according to the manufactures instructions using LANCE® TR-FRET cAMP assay kit (Perkin Elmer, Cat #: AD0264). Serial dilutions (3 μl/well) of the molecules were plated in a 384-well OptiPlate (Perkin Elmer, Cat #: 6007299) in duplicates. Appropriate controls (100% stimulation: Forskolin and 0% stimulation: Vehicle control) (6 μl/well) were included in each plate for data normalization. Following the compound addition, 6 μl of G-protein coupled receptor overexpressing cells/Alexa Fluor antibody solution (1:100 dilution) was added in each well at a desired density of 2500 cells/well. The overexpressing cell lines were purchased from DiscoveRx, Birmingham, UK. After spinning the plate at 1000 rpm for 1 minute and vortexing briefly, the cells were pre-incubated with the compounds for 30 minutes at room temperature (covered). Then 3 μl of the equivalent peptide ligand (EC50 dose) was added to all the wells except vehicle and forskolin controls. The plate were then spun down at 1000 rpm for 1 minute and once finished they were vortexed briefly and covered. Cells were stimulated in the presence of the ligands for 15 minutes at room temperature. After stimulation 12 μl of detection mix (Europium-Chelate streptavidin/biotinylated cAMP tracer solution) was added to all wells and incubated for 60 minutes at room temperature. The plate was then read on the Enspire multimode Plate reader (Perkin Elmer), at; 320/340 nm excitation and 615/665 nm emission was recorded.
• 28 mL Hank's Balanced salt solution (+MgCl2, +CaCl2)—(Thermo Fisher Cat #:14170112) • 150 μl HEPES (1M)—(Thermo Fisher Cat #:15630080) • 400 μl Stabilizer (DTPA) Purified BSA (7.5%)—(Perkin Elmer, Cat #: CR84-100) • 60 μl IBMX (250 mM)—(Sigma Aldrich, Cat #: 15879) Specific cAMP/Agonist-Antagonist Competition Assays
The ability of a compound to inhibit the AM induced cAMP activation in AM2 receptor-expressing cells (1321N1 cells transfected with CALCRL+RAMP3, sourced from DiscoverX catalogue number 95-0169C6) was assessed using the protocol above.
`O=C(CN(Cc1ccccc1CN1CCC1)C(=O)CC(F)(F)F)Nc1ccc2c(c1)CC1(C2)C(=O)Nc2ncccc21` (stereo not drawn) [Example 45, N-(2-(Azetidin-1-ylmethyl)benzyl)-3,3,3-trifluoro-N-(2-oxo-2-((2′-oxo-1,1′,2,3-tetrahydrospiro[indene-2,3′-pyrrolo[2,3-b]pyridin]-5-yl)amino)ethyl)propanamide] was tested, and the IC50 was 0.245 µM.
For `O=C(CN(Cc1ccccc1CN1CCC1)C(=O)C1CCCC1)Nc1ccc2c(c1)CC1(C2)C(=O)Nc2ncccc21` (stereo not drawn) [Example 46, N-(2-(Azetidin-1-ylmethyl)benzyl)-N-(2-oxo-2-((2′-oxo-1,1′,2′,3-tetrahydrospiro[indene-2,3′-pyrrolo[2,3-b]pyridin]-5-yl)amino)ethyl)cyclopentanecarboxamide], the IC50 was 0.00282 µM.
Work on `CC1(C(=O)N(CC(=O)Nc2ccc3c(c2)CC2(C3)C(=O)Nc3ncccc32)Cc2ccccc2CN2CCC2)CC1` (stereo not drawn) [Example 47, N-(2-(Azetidin-1-ylmethyl)benzyl)-1-methyl-N-(2-oxo-2-((2′-oxo-1,1′,2′,3-tetrahydrospiro[indene-2,3′-pyrrolo[2,3-b]pyridin]-5-yl)amino)ethyl)-cyclopropanecarboxamide] yielded an IC50 of 0.0155 µM.
Work on `O=C(CN(Cc1ccccc1CN1CCC1)C(=O)C1CC1)Nc1ccc2c(c1)CC1(C2)C(=O)Nc2ncccc21` (stereo not drawn) [Example 49, N-(2-(Azetidin-1-ylmethyl)benzyl)-N-(2-oxo-2-((2′-oxo-1,1′,2′,3-tetrahydrospiro[indene-2,3′-pyrrolo[2,3-b]pyridin]-5-yl)amino)ethyl)cyclopropanecarboxamide] yielded an IC50 of 0.0102 µM.
With `COC(=O)N(CC(=O)Nc1ccc2c(c1)CC1(C2)C(=O)Nc2ncccc21)Cc1ccccc1CN1CCC1` (stereo not drawn) [Example 50, Methyl 2-(azetidin-1-ylmethyl)benzyl(2-oxo-2-((2′-oxo-1,1′,2′,3-tetrahydrospiro[indene-2,3′-pyrrolo[2,3-b]pyridin]-5-yl)amino)ethyl)carbamate] the IC50 was 0.0741 µM.
`O=C(CN(Cc1ccccc1CN1CCC1)C(=O)c1ccccc1)Nc1ccc2c(c1)CC1(C2)C(=O)Nc2ncccc21` (stereo not drawn) [Example 51, N-(2-(Azetidin-1-ylmethyl)benzyl)-N-(2-oxo-2-((2′-oxo-1,1′,2′,3-tetrahydrospiro[indene-2,3′-pyrrolo[2,3-b]pyridin]-5-yl)amino)ethyl)benzamide] showed an IC50 of 0.0851 µM.
With `O=C(CN(Cc1ccccc1CN1CCC1)C(=O)c1ccccn1)Nc1ccc2c(c1)CC1(C2)C(=O)Nc2ncccc21` (stereo not drawn) [Example 52, N-(2-(Azetidin-1-ylmethyl)benzyl)-N-(2-oxo-2-((2′-oxo-1,1′,2,3-tetrahydrospiro[indene-2,3′-pyrrolo[2,3-b]pyridin]-5-yl)amino)ethyl)picolinamide] the IC50 was 0.0468 µM.
With `CNCc1ccc(F)cc1CN(CC(=O)Nc1ccc2c(c1)CC1(C2)C(=O)Nc2ncccc21)C(=O)C(C)(C)C` (stereo not drawn) [Example 54, N-(5-Fluoro-2-((methylamino)methyl)benzyl)-N-(2-oxo-2-((2′-oxo-1,1′,2′,3-tetrahydrospiro[indene-2,3′-pyrrolo[2,3-b]pyridin]-5-yl)amino)ethyl)pivalamide] the IC50 was 0.00355 µM.
`CNCc1cc(F)ccc1CN(CC(=O)Nc1ccc2c(c1)CC1(C2)C(=O)Nc2ncccc21)C(=O)C(C)(C)C` (stereo not drawn) [Example 55, N-(4-Fluoro-2-((methylamino)methyl)benzyl)-N-(2-oxo-2-((2′-oxo-1,1′,2′,3-tetrahydrospiro[indene-2,3′-pyrrolo[2,3-b]pyridin]-5-yl)amino)ethyl)pivalamide] showed an IC50 of 0.00977 µM.
`CNCc1cccc(F)c1CN(CC(=O)Nc1ccc2c(c1)CC1(C2)C(=O)Nc2ncccc21)C(=O)C(C)(C)C` (stereo not drawn) [Example 56, N-(2-Fluoro-6-((methylamino)methyl)benzyl)-N-(2-oxo-2-((2′-oxo-1,1′,2′,3-tetrahydrospiro[indene-2,3′-pyrrolo[2,3-b]pyridin]-5-yl)amino)ethyl)pivalamide] was tested, and the IC50 was 0.151 µM.
Compound `CNCc1ccccc1CN(CC(=O)Nc1ccc2c(c1)CC1(C2)C(=O)Nc2ncccc21)C(=O)COC` (stereo not drawn) [Example 57, 2-Methoxy-N-(2-((methylamino)methyl)benzyl)-N-(2-oxo-2-((2′-oxo-1,1′,2′,3-tetrahydrospiro[indene-2,3′-pyrrolo[2,3-b]pyridin]-5-yl)amino)ethyl)acetamide] has an IC50 of 0.269 µM.
With `CNCc1ccccc1CN(CC(=O)Nc1ccc2c(c1)CC1(C2)C(=O)Nc2ncccc21)C(=O)C1(C)COC1` (stereo not drawn) [Example 58, 3-Methyl-N-(2-((methylamino)methyl)benzyl)-N-(2-oxo-2-((2′-oxo-1,1′,2′,3-tetrahydrospiro[indene-2,3′-pyrrolo[2,3-b]pyridin]-5-yl)amino)ethyl)oxetane-3-carboxamide] the IC50 was 0.0151 µM.
With `CNCc1ccccc1CN(CC(=O)Nc1ccc2c(c1)CC1(C2)C(=O)Nc2ncccc21)C(=O)C(C)(C)OC` (stereo not drawn) [Example 59, 2-Methoxy-2-methyl-N-(2-((methylamino)methyl)benzyl)-N-(2-oxo-2-((2′-oxo-1,1′,2′,3-tetrahydrospiro[indene-2,3′-pyrrolo[2,3-b]pyridin]-5-yl)amino)ethyl)propanamide] the IC50 was 0.00933 µM.
With `CNCc1ccccc1CN(CC(=O)Nc1ccc2c(c1)CC1(C2)C(=O)Nc2ncccc21)C(=O)c1cscn1` (stereo not drawn) [Example 60, N-(2-((Methylamino)methyl)benzyl)-N-(2-oxo-2-((2′-oxo-1,1′,2′,3-tetrahydrospiro[indene-2,3′-pyrrolo[2,3-b]pyridin]-5-yl)amino)ethyl)thiazole-4-carboxamide] the IC50 was 0.00708 µM.
`CNCc1ccccc1CN(CC(=O)Nc1ccc2c(c1)CC1(C2)C(=O)Nc2ncccc21)C(=O)c1csc(C)n1` (stereo not drawn) [Example 61, 2-Methyl-N-(2-((methylamino)methyl)benzyl)-N-(2-oxo-2-((2′-oxo-1,1′,2′,3-tetrahydrospiro[indene-2,3′-pyrrolo[2,3-b]pyridin]-5-yl)amino)ethyl)thiazole-4-carboxamide] gave an IC50 of 0.219 µM.
`CNCc1ccccc1CN(CC(=O)Nc1ccc2c(c1)CC1(C2)C(=O)Nc2ncccc21)C(=O)c1ncsc1C` (stereo not drawn) [Example 62, 5-Methyl-N-(2-((methylamino)methyl)benzyl)-N-(2-oxo-2-((2′-oxo-1,1′,2′,3-tetrahydrospiro[indene-2,3′-pyrrolo[2,3-b]pyridin]-5-yl)amino)ethyl)thiazole-4-carboxamide] gave an IC50 of 0.0427 µM.
In the case of `CNCc1ccccc1CN(CC(=O)Nc1ccc2c(c1)CC1(C2)C(=O)Nc2ncccc21)C(=O)C1CCCO1` (stereo not drawn) [Example 63, N-(2-((Methylamino)methyl)benzyl)-N-(2-oxo-2-((2′-oxo-1,1′,2′,3-tetrahydrospiro[indene-2,3′-pyrrolo[2,3-b]pyridin]-5-yl)amino)ethyl)tetrahydrofuran-2-carboxamide], the IC50 was 0.0537 µM.
`CNCc1ccccc1CN(CC(=O)Nc1ccc2c(c1)CC1(C2)C(=O)Nc2ncccc21)C(=O)C1CCCCO1` (stereo not drawn) [Example 64, N-(2-((Methylamino)methyl)benzyl)-N-(2-oxo-2-((2′-oxo-1,1′,2′,3-tetrahydrospiro[indene-2,3′-pyrrolo[2,3-b]pyridin]-5-yl)amino)ethyl)tetrahydro-2H-pyran-2-carboxamide] showed an IC50 of 0.0851 µM.
`CNCc1ccccc1CN(CC(=O)Nc1ccc2c(c1)CC1(C2)C(=O)Nc2ncccc21)C(=O)C1CCCC1` (stereo not drawn) [Example 65, N-(2-((methylamino)methyl)benzyl)-N-(2-oxo-2-((2′-oxo-1,1′,2′,3-tetrahydrospiro[indene-2,3′-pyrrolo[2,3-b]pyridin]-5-yl)amino)ethyl)cyclopentanecarboxamide] was tested, and the IC50 was 0.00282 µM.
For `CNCc1ccccc1CN(CC(=O)Nc1ccc2c(c1)CC1(C2)C(=O)Nc2ncccc21)C(=O)N1CCC(OC)C1` (stereo not drawn) [Example 67, 3-Methoxy-N-[[2-(methylaminomethyl)phenyl]methyl]-N-[2-oxo-2-[(2-oxospiro[1H-pyrrolo[2,3-b]pyridine-3,2′-indane]-5′-yl)amino]ethyl]pyrrolidine-1-carboxamide], the IC50 was 0.0646 µM.
For `CNCc1ccccc1CN(CC(=O)Nc1ccc2c(c1)CC1(C2)C(=O)Nc2ncccc21)C(=O)C1CN(C(C)=O)C1` (stereo not drawn) [Example 68, 1-(Acetyl)-N-[[2-(methylaminomethyl)phenyl]methyl]-N-[2-oxo-2-[(2-oxospiro[1H-pyrrolo[2,3-b]pyridine-3,2′-indane]-5′-yl)amino]ethyl]azetidine-3-carboxamide], the IC50 was 0.0331 µM.

Reference: US11400081B2, “Compounds” (The University of Sheffield, priority 2017, dated 2022)
